Consider one molecule from publication PMC9229843, “Cancer-Related Somatic Mutations in Transmembrane Helices Alter Adenosine A1 Receptor Pharmacology” (Molecules, 2022).

The target of assay [1] is T1, hA1AR L134F^4.52 (Homo sapiens, UniProt P30542, L134F).
T1 sequence (P30542 1-326 L134F): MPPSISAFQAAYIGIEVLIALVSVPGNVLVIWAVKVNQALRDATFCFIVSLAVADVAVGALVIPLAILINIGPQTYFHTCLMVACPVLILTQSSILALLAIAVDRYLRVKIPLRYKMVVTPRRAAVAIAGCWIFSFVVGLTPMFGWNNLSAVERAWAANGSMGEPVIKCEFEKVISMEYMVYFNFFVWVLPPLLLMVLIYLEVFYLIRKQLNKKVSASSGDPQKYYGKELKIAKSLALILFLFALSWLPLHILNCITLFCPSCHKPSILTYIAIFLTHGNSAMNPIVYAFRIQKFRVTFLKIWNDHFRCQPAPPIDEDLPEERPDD
As to conditions: [35S]GTPγS; ratio over basal activity of wild type hA1AR. As for the experimental part: (§1) Transient transfection of CHO cells with wild type or mutated hA1AR plasmid constructs was performed using a polyethylenimine (PEI) method. Cells were seeded in 10-cm culture dishes to achieve 50–60% confluency 24 h prior to transfection. On the day of transfection, cells were transfected with a PEI: DNA ratio of 3:1 and a plasmid DNA amount of 10 μg/dish. Moreover, 24 h post-transfection, the medium was refreshed, and 48 h after transfection, cells were collected and membranes were prepared as previously described. Membranes were aliquoted in 250 or 100 μL and stored at −80 °C. Membrane protein concentrations were determined using the BCA method.
(§2) [^35S]GTPγS binding assays were adapted from a previously published method. […] Then, 20 µL of [^35S]GTPγS (final concentration of 0.3 nM) was added to each well, followed by 90 min of incubation at 25 °C. Incubations were terminated and filter-bound radioactivity was measured as described above.
(§3) All experimental data were analyzed by GraphPad Prism 7.0 or 8.0 (GraphPad Software Inc., San Diego, CA, USA). Data from yeast liquid growth and [^35S]GTPγS binding assays were analyzed by non-linear regression using “log (agonist) vs. response (three parameters)” or “log (inhibitor) vs. response (three parameters)” to obtain potency (EC50), inhibitory potency (IC50), and efficacy (Emax or Imax) values. The radioligand displacement curves were obtained from a statistically preferred one-site or two-site binding model. pKi values were calculated from pIC50 values using the Cheng–Prusoff equation, where KD values were obtained from the homologous competition assays from this study and calculated by non-linear regression using “one site–homologous” [62].
A general note: GTPγS is a poorly hydrolysed GTP analogue; its binding reports G protein activation.

In a further assay the target is T2, hA1AR S246T^6.47 (Homo sapiens, UniProt P30542, S246T).
T2 sequence (P30542 1-326 S246T): T1 sequence (P30542 1-326 L134F) with F134L, S246T
The following applies: [35S]GTPγS; ratio over basal activity of wild type hA1AR. As for the experimental part:
as §1, §2, §3

In assay [2] the target is T3, hA1AR W188C^5.46 (Homo sapiens, UniProt P30542, W188C).
T3 sequence (P30542 1-326 W188C): T1 sequence (P30542 1-326 L134F) with F134L, W188C
As for the experimental part:
as §1, §2, §3

Another assay concerns the target T4, wild type hA1AR (Homo sapiens, UniProt P30542).
T4 sequence (P30542 1-326): T1 sequence (P30542 1-326 L134F) with F134L
As to conditions: [35S]GTPγS; ratio over basal activity of wild type hA1AR. As for the experimental part: as §1, §2, §3

Assay [3] addresses T1, hA1AR L134F^4.52. Kind of assay: [3H]DPCPX radioligand displacement assay, CHO membranes. Set-up: expressed in transfected cells; host or cells: CHO cells, transient; membranes. The following applies: fraction of high-affinity state; two-site model. The format is binding. On the procedure: as §1
(§4) The displacement assays were performed as described previously. […] Note, the number of cell membranes (10–25 µg) was adjusted to obtain (approximately) a 1500 DPM assay window for each mutant. […] Incubations were terminated after 1 h at 25 °C by rapid vacuum filtration through GF/B filter plates (PerkinElmer, Groningen, Netherlands) using a Perkin Elmer Filtermate-harvester. Afterward, filter plates were washed ten times with ice-cold buffer (50 mM Tris-HCl, pH 7.4) and dried at 55 °C for 30 min. After the addition of 25 µL per well of the Microscint scintillation cocktail (PerkinElmer, Groningen, The Netherlands), the filter-bound radioactivity was measured by scintillation spectrometry in a Microbeta2® 2450 microplate counter (PerkinElmer).
as §3
(In general: Displacement assays read how much labelled ligand stays bound in the presence of the test substance.)

In assay [4] the target is T3, hA1AR W188C^5.46. The assay is described as above. In kind it is binding. Set-up: expressed in transfected cells; host or cells: CHO cells, transient; membranes. The following applies: fraction of high-affinity state; two-site model. As for the experimental part:
as §1, §4, §3

Substitutions are numbered along the chain they refer to.

`OC[C@H]1O[C@@H](n2cnc3c(NC4CCCC4)ncnc32)[C@H](O)[C@@H]1O` [CPA, N^6-cyclopentyladenosine]: the Emax amounted to 1.48 ± 0.24 on hA1AR L134F^4.52 [1]; 1.21 ± 0.10 on hA1AR S246T^6.47; 1.94 ± 0.02 on hA1AR W188C^5.46 [2] ([35S]GTPγS, ratio over basal activity of wild type hA1AR); 1.48 ± 0.13 on wild type hA1AR. For the same molecule, the “decrease in the potency value versus wild type” value on hA1AR W188C^5.46 [2] (mammalian system) was found to be 10 fold. Moreover, the “Fraction (High)” value at hA1AR L134F^4.52 [3] is recorded as 0.34 ± 0.03; on hA1AR W188C^5.46 [4] it was 0.29 ± 0.01.
